Measurements as given in patent US9751854B2 (Millennium Pharmaceuticals, Inc., priority 2014, dated 2017).
pIC50: −log10 of the molar value.

Biological target: human VPS34 (Homo sapiens (Human), UniProt Q8NEB9)
Assay: Human VPS34 enzyme assay (Adapta TR-FRET ADP detection)
Assay type: biochemical
Parameters: Percent Inhibition: dose or concentration left out as unconfirmed
Settings: for pIC50: IC50 range class

human VPS34, sequence (Q8NEB9 whole entry): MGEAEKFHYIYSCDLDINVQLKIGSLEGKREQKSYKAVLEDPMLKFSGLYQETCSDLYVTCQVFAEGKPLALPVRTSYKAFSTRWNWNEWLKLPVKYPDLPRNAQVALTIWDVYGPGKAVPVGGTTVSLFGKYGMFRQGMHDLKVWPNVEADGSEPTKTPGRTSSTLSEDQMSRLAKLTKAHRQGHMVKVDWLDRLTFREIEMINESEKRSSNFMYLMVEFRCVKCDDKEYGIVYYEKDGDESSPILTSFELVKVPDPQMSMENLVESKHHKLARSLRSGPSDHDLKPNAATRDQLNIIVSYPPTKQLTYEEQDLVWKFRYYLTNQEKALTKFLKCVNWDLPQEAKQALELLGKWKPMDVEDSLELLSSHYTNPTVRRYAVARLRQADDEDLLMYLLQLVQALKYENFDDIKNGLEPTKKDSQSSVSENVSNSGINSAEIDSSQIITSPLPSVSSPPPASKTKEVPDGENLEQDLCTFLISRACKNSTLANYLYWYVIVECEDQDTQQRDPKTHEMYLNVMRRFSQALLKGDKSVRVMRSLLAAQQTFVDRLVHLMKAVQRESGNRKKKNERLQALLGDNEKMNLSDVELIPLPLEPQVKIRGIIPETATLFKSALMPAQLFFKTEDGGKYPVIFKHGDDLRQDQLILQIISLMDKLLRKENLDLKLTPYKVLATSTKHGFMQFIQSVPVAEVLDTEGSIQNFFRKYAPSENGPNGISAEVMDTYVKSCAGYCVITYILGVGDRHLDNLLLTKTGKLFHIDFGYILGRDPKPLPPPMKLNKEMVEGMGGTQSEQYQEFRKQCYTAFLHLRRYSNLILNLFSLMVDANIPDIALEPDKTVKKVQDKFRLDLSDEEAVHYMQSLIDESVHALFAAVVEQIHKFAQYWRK

SMILES	pIC50	Percent Inhibition [%]
COC(=O)Nc1cc(-c2cnc3ccn(CC4CC4)c3c2)ccn1 [Compound I-42, Methyl {4-[1-(cyclopropylmethyl)-1H-pyrrolo[3,2-b]pyridin-6-yl]pyridin-2-yl}carbamate]	7.30 to 8.00	–
CC(=O)Nc1cc(-c2cnc(N)c(S(=O)(=O)Nc3ccccc3)c2)ccn1 [Compound I-43]	> 8.00	–
CC(=O)Nc1cc(-c2cncc(C(=O)N(C)C)c2)ccn1 [Compound I-48, 2′-acetamido-N,N-dimethyl-3,4′-bipyridine-5-carboxamide]	< 7.00	–
CC(=O)Nc1cc(-c2cnc(N)c(S(=O)(=O)Cc3ccccc3C(F)(F)F)c2)ccn1 [Compound I-50, N-(6-amino-5-{[2-(trifluoromethyl)benzyl]sulfonyl}-3,4′-bipyridin-2′-yl)acetamide]	7.30 to 8.00	–
CC(=O)Nc1cc(-c2cnc(C)c(NS(=O)(=O)c3cc(F)ccc3F)c2)ccn1 [Compound I-52]	> 8.00	>99
CC(=O)Nc1cc(-c2cnc3[nH]cc(CN4CCCC4)c3c2)ccn1 [Compound I-54, N-{4-[3-(pyrrolidin-1-ylmethyl)-1H-pyrrolo[2,3-b]pyridin-5-yl]pyridin-2-yl}acetamide]	< 7.00	–
COC(=O)Nc1cc(-c2cnc(N)c(C(=O)N(C)C)c2)ccn1 [Compound I-55, methyl [6-amino-5-(dimethylcarbamoyl)-3,4′-bipyridin-2′-yl]carbamate]	> 8.00	–
CC(=O)Nc1cc(-c2cnc(Cl)c(NS(=O)(=O)c3ccccc3)c2)c(C)cn1 [Compound I-56, N-{6-chloro-5′-methyl-5-[(phenylsulfonyl)amino]-3,4′-bipyridin-2′-yl]acetamide]	7.30 to 8.00	–
COc1cc(F)ccc1S(=O)(=O)Nc1cc(-c2ccnc(NC(C)=O)c2)cnc1C [Compound I-58, N-(5-{[(4-fluoro-2-methoxyphenyl)sulfonyl]amino}-6-methyl-3,4′-bipyridin-2′-yl)acetamide]	> 8.00	–
CC(=O)Nc1cc(-c2cnc(C)c(NS(=O)(=O)c3ccc(F)c(F)c3)c2)ccn1 [Compound I-59, N-(5-{[(3,4-difluorophenyl)sulfonyl]amino}-6-methyl-3,4′-bipyridin-2′-yl)acetamide]	> 8.00	–
CC(=O)Nc1cc(-c2cnc(N)c(C(=O)N3CCC(F)(F)C3)c2)ccn1 [Compound I-60, N-{6-amino-5-[(3,3-difluoropyrrolidin-1-yl)carbonyl]-3,4′-bipyridin-2′-yl}acetamide]	7.30 to 8.00	–
CC(=O)Nc1cc(-c2cnc(C)c(NS(=O)(=O)c3ccccc3C(F)(F)F)c2)ccn1 [Compound I-62, N-[6-methyl-5-({[2-(trifluoromethyl)phenyl]sulfonyl}amino)-3,4′-bipyridin-2′-yl]acetamide]	> 8.00	–
CNc1ncc(-c2ccnc(NC(C)=O)c2)cc1S(=O)(=O)Nc1ccc(F)cc1F [Compound I-63, N-{5-[(2,4-difluorophenyl)sulfamoyl]-6-(methylamino)-3,4′-bipyridin-2′-yl}acetamide]	> 8.00	–
CC(=O)Nc1cc(-c2cnc3[nH]c(C)nc3c2)ccn1 [Compound I-66, N-[4-(2-methyl-3H-imidazo[4,5-b]pyridin-6-yl)pyridin-2-yl]acetamide]	< 7.00	–
CC(=O)Nc1cc(-c2cnc(C)c(NS(=O)(=O)c3cccc(C(C)(C)C)c3)c2)ccn1 [Compound I-70]	> 8.00	–
CC(=O)Nc1cc(-c2cnc(N)c(C(=O)N3CCc4ccccc43)c2)ccn1 [Compound I-71, N-[6-amino-5-(2,3-dihydro-1H-indol-1-ylcarbonyl)-3,4′-bipyridin-2′-yl]acetamide]	> 8.00	–
COc1ccccc1S(=O)(=O)Nc1cc(-c2ccnc(NC(C)=O)c2)cnc1C [Compound I-74, N-(5-{[(2-methoxyphenyl)sulfonyl]amino}-6-methyl-3,4′-bipyridin-2′-yl)acetamide]	> 8.00	–
CC(=O)Nc1cc(-c2cnc(N)c(S(=O)(=O)N(C)Cc3ccccc3)c2)ccn1 [Compound I-76, N-{6-amino-5-[benzyl(methyl)sulfamoyl]-3,4′-bipyridin-2′-yl}acetamide]	> 8.00	–
CC(=O)Nc1cc(-c2cnc(N)c(S(=O)(=O)N(C(C)C)C(C)C)c2)ccn1 [Compound I-77, N-[6-amino-5-(diisopropylsulfamoyl)-3,4′-bipyridin-2′-yl]acetamide]	> 8.00	–
CC(=O)Nc1cc(-c2cnc(C)c(NS(=O)(=O)c3cccc4ccccc34)c2)ccn1 [Compound I-78, N-[6-methyl-5-[(1-naphthylsulfonyl)amino]-3,4′-bipyridin-2′-yl}acetamide]	> 8.00	–
CC(=O)Nc1cc(-c2cnc(N)c(C(=O)N3CCN(C)CC3)c2)ccn1 [Compound I-79, N-[6-amino-5-[(4-methylpiperazin-1-yl)carbonyl]-3,4′-bipyridin-2′-yl}acetamide]	7.30 to 8.00	–
CC(=O)Nc1cc(-c2cnc(N)c(C(=O)Nc3cccc(F)c3)c2)ccn1 [Compound I-82, 2′-acetamido-6-amino-N-(3-fluorophenyl)-3,4′-bipyridine-5-carboxamide]	7.30 to 8.00	–
CC(=O)Nc1cc(-c2cnc3[nH]cc(CN(C)C)c3c2)ccn1 [Compound I-85, N-(4-{3-[(dimethylamino)methyl]-1H-pyrrolo[2,3-b]pyridin-5-yl}pyridin-2′-yl)acetamide]	< 7.00	–
CC(=O)Nc1cc(-c2ccc(S(=O)(=O)Nc3cc(-c4ccnc(NC(C)=O)c4)cnc3C)c(F)c2)ccn1 [Compound I-86, N-(4-{4-[(2′-acetamido-6-methyl-3,4′-bipyridin-5-yl)sulfamoyl]-3-fluorophenyl}pyridin-2-yl)acetamide]	> 8.00	–

Continued, values first:

pIC50	Percent Inhibition [%]	SMILES
> 8.00	–	CCc1ccc(S(=O)(=O)Nc2cc(-c3ccnc(NC(C)=O)c3)cnc2C)cc1 [Compound I-44, N-(5-{[(4-ethylphenyl)sulfonyl]amino}-6-methyl-3,4′-bipyridin-2′-yl)acetamide]
> 8.00	–	CC(=O)Nc1cc(-c2cnc(C)c(NS(=O)(=O)c3cccnc3)c2)ccn1 [Compound I-45, N-{6-methyl-5-[(pyridin-3-ylsulfonyl)amino]-3,4′-bipyridin-2′-yl}acetamide]
7.30 to 8.00	–	CC(=O)Nc1cc(-c2cnc(C)c(N(C)S(=O)(=O)c3ccccc3)c2)ccn1 [Compound I-46, N-{6-methyl-5-[methyl(phenylsulfonyl)amino]-3,4′-bipyridin-2′-yl}acetamide]
7.30 to 8.00	–	CC(=O)Nc1cc(-c2cncc(S(=O)(=O)N3CCCC3)c2)ccn1 [Compound I-47, N-[5-(pyrrolidin-1-ylsulfonyl)-3,4′-bipyridin-2′-yl]acetamide]
7.00 to 7.30	–	CC(=O)Nc1cc(-c2cnc(N)c(S(=O)(=O)NCC3CC3)c2C)ccn1 [Compound I-49, N-{6-amino-5-[(cyclopropylmethyl)sulfamoyl]-4-methyl-3,4′-bipyridin-2′-yl}acetamide]
7.00 to 7.30	–	CC(=O)Nc1cc(-c2cncc(S(C)(=O)=O)c2)ccn1 [Compound I-51, N-[5-(methylsulfonyl)-3,4′-bipyridin-2′-yl]acetamide]
< 7.00	–	CC(=O)Nc1cc(-c2cnc(NCC3CC3)c(N)c2)ccn1 [Compound I-53, N-{5-amino-6-{(cyclopropylmethyl)amino]-3,4′-bipyridin-2′-yl}acetamide]
7.30 to 8.00	–	CNC(=O)c1cc(-c2ccnc(NC(C)=O)c2)cnc1N [Compound I-57, 2′-acetamido-6-amino-N-methyl-3,4′-bipyridine-5-carboxamide]
7.30 to 8.00	–	CC(=O)Nc1cc(-c2cnc(N)c(S(N)(=O)=O)c2)ccn1 [Compound I-61, N-(6-amino-5-sulfamoyl-3,4′-bipyridin-2′-yl)acetamide]
< 7.00	–	CC(=O)Nc1cc(-c2cnc(NCC3CC3)c(NCC3CC3)c2)ccn1 [Compound I-65, N-{5,6-bis[(cyclopropylmethyl)amino]-3,4′-bipyridin-2′-yl}acetamide]
7.00 to 7.30	–	CC(=O)Nc1cc(-c2cnc3c(c2)CCN3)ccn1 [Compound I-67, N-[4-(2,3-dihydro-1H-pyrrolo[2,3-b]pyridin-5-yl)pyridin-2-yl]acetamide]
< 7.00	–	CC(=O)Nc1cc(-c2cnc3c(c2)NS(=O)(=O)N3CC2CC2)ccn1 [Compound I-68, N-{4-[3-(cyclopropylmethyl)-2,2-dioxido-1,3-dihydro[1,2,5]thiadiazolo[3,4-b]pyridin-6-yl)pyridin-2-yl}acetamide]
7.30 to 8.00	–	CCS(=O)(=O)c1cc(-c2ccnc(NC(C)=O)c2)cnc1N [Compound I-69, N-[6-amino-5-(ethylsulfonyl)-3,4′-bipyridin-2′-yl]acetamide]
> 8.00	–	CC(=O)Nc1cc(-c2cnc(C)c(NS(=O)(=O)C3CCCCC3)c2)ccn1 [Compound I-72, N-{5-[(cyclohexylsulfonyl)amino]-6-methyl-3,4′-bipyridin-2′-yl]acetamide]
> 8.00	>99	CC(=O)Nc1cc(-c2cnc(N)c(S(=O)(=O)NCC(C)C)c2)ccn1 [Compound I-73, N-[6-amino-5-(isobutylsulfamoyl)-3,4′-bipyridin-2′-yl]acetamide]
7.00 to 7.30	–	CC(=O)Nc1cc(-c2cnc(C)c(C(=O)N(C)C)c2)ccn1 [Compound I-75, 2′-acetamido-N,N,6-trimethyl-3,4′-bipyridin-5-carboxamide]
> 8.00	–	CC(=O)Nc1cc(-c2cnc(C)c(NS(=O)(=O)c3ccc(C)cc3)c2)ccn1 [Compound I-80, N-(6-methyl-5-{[(4-methylphenyl)sulfonyl]amino]-3,4′-bipyridin-2′-yl)acetamide]
> 8.00	–	CC(=O)Nc1cc(-c2cnc(N)c(C(=O)N3CCC(C)CC3)c2)ccn1 [Compound I-81, N-{6-amino-5-[[4-methylpiperidin-1-yl)carbonyl]-3,4′-bipyridin-2′-yl}acetamide]
< 7.00	–	CC(=O)Nc1cc(-c2cnc(C)c(N(CC3CC3)S(=O)(=O)C3CC3)c2)ccn1 [Compound I-83, N-{5-[(cyclopropylmethyl)(cyclopropylsulfonyl)amino]-6-methyl-3,4′-bipyridin-2′-yl}acetamide]
> 8.00	–	CC(=O)Nc1cc(-c2cnc(C)c(NS(=O)(=O)c3ccccc3)c2)ccn1 [Compound I-84, N-{6-methyl-5-[(phenylsulfonyl)amino]-3,4′-bipyridin-2′-yl}acetamide]
